Where two headings read alike, the source gives them in different places.
Tests used:
[1] = Docetaxel stability test in solution (HPLC assay); assay type: physicochemical; conditions: normal saline solution
Method: (§1) HPLC chromatographic conditions: chromatographic column ODS Cig (250 mm×4.6 mm); mobile phase: water:acetonitrile (53:47); flow rate: 1.0 ml/min; detection wavelength: 230 nm; detection time: 30.00 min; detection sensitivity: 1.0000AUFS.
Under the aforesaid HPLC chromatographic conditions, some docetaxel raw materials; docetaxel/sulfobuty-β-cyclodextrin inclusion (a) with a mass ratio of 1:17 and docetaxel/hydroxypropy-sulfobuty-β-cyclodextrin inclusion (b) with a mass ratio of 1:17 were taken and dissolved with normal saline solution, diluted for 100 times after 30 min ultrasonic wave treatment, placed still, […]

[2] = tested on: advanced breast carcinoma; conditions: treatment of advanced breast carcinoma; cited from earlier work
[3] = Inclusion solubilization test; assay type: physicochemical; conditions: thermodynamic from solid, docetaxel solubility in pure water, 25° C.
Method: Standard curve: 0.67 mg/ml docetaxel solution was prepared by dissolving docetaxel with ethanol, and diluted with pure water into […]˜20.1 μg/ml series solutions, then UV absorption value A was measured under 228 nm. A standard curve was plotted by A against concentration C (mg/ml) (A=13.881C+0.3577 (r=0.9998)).
The excessive docetaxel or inclusion in the pure water was oscillated for 72 h at 25° C.±1° C., filtered and placed still.

[4] = Solid inclusion stability, 5-day acceleration test (light, high temperature, high humidity), HPLC content; assay type: physicochemical
Method: as §1
Samples: docetaxel material; docetaxel/sulfobutyl-β-cyclodextrin inclusion (a, mass ratio of 1:17); docetaxel/hydroxypropyl-sulfobutyl-β-cyclodextrin inclusion (b, mass ratio of 1:17). Docetaxel materials and inclusions were divided into three portions of test samples equally and were subject to light, high temperature and high humidity acceleration tests respectively:
Samples were put in a sealed transparent container and then placed in an illumination box equipped with fluorescent light of 4500±500LX illumination intensity for 5 days. Sampling inspection analysis was conducted, and the test results were compared with the samples of 0 day.
Samples were placed in a clean sealed container at a temperature of 60° C. for 5 days. Sampling inspection analysis was conducted, and the test results were compared with the samples of 0 day.
Samples were placed in a sealed container of constant humidity at temperature of 25° C. and relative humidity of 90±5% for 5 days. Sampling inspection analysis was conducted, and the test results were compared with the samples of 0 day.

[5] = cited from earlier work
tubulin = conditions: versus paclitaxel; cited from earlier work

CC(=O)O[C@@]12CO[C@@H]1C[C@H](O)[C@@]1(C)C(=O)[C@H](O)C3=C(C)[C@@H](OC(=O)[C@H](O)[C@@H](NC(=O)OC(C)(C)C)c4ccccc4)C[C@@](O)([C@@H](OC(=O)c4ccccc4)[C@H]21)C3(C)C (relative stereo) [Docetaxel, [2aR-(2aα,4β,4aβ,6β,9α,(αR*,βS*),11α,12α,12aβ,12bα)]-β-[[(1,1-dimethylethoxy)carbonyl]amino]-α-hydroxyphenyl propionic acid [12b-acetoxy-12-benzoyloxy-2a,3,4,4a,5,6,9,10,11,12,12a,12b-dodecahydro-4,6,11-trihydroxyl-4-a,8,13,13-tetramethyl-5-oxo-7,11-methylene-1H-pentacyclo-ene[3,4]benzo[1,2-b]tetraoxacyclo-9-base]acetate trihydrate]
Content (%) 0 h ([1]; diluted 100 times, 0 h): 99.675% | Content (%) 5 h ([1]; diluted 100 times, 5 h): 99.025% | Content (%) 10 h ([1]; diluted 100 times, 10 h): 97.381% | Content (%) 24 h ([1]; diluted 100 times, 24 h): 93.433% | Content (%) 96 h ([1]; diluted 100 times, 96 h): 86.384% | half-life ([1]; in solution, read-out: half-life of sample decomposition in solution (converted)): 15.1 days | effective ratio [2]: 49% | solubility at 72 h [3]: 2.9 µg/mL | Content (%) 0 day ([4]; 0 day): 99.675% | Content (%) Hight humitdity ([4]; 25° C., relative humidity 90±5%, 5 days): 83.877% | Content (%) High temperature ([4]; 60° C., 5 days): 87.859% | Content (%) Light ([4]; 4500±500LX, 5 days): 90.176% | incidence rate of moderate and severe hypersusceptibility ([5]; after injection): 25.9% | incidence rate of moderate hypersusceptibility or more ([5]; dosage 75 mg/m^2): 31% | incidence rate of moderate hypersusceptibility or more ([5]; dosage 100 mg/m^2): 41.3% | injection-part reaction rate ([5]; in vivo): up to 13.3% | inhibitory activity of tubulin depolymerization relative to paclitaxel (tubulin): about 2 times
